Test results from patent publication US8574563B2 (Bristol-Myers Squibb Company, priority 2006, dated 2013).

Test system: HCV 1b-377-neo replicon cells
Assay: HCV replicon assay, HCV 1b-377-neo replicon cells (1b FRET)
Type: cell-based, Hepatitis C virus genotype 1b
Conditions: Hepatitis C virus, HCV 1b-377-neo replicon cells; HCV 1b genotype; read-out: EC50 range against HCV 1b (Table 2, Range)
Procedure, shortened: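 FRET-based replicon assay in HCV 1b-377-neo cells, including a comparison line carrying the NS5A Y2065H mutation that confers resistance to a reference compound.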

SMILES: CCN[C@@H](C(=O)N1CCC[C@H]1c1nc(-c2ccc(-c3ccc(-c4cnc([C@@H]5CCCN5C(=O)[C@H](NCC)c5ccccc5)[nH]4)cc3)cc2)c[nH]1)c1ccccc1 [Example F14, (1R)-N-ethyl-2-((2S)-2-(4-(4′-(2-((2S)-1-((2R)-2-(ethylamino)-2-phenylacetyl)-2-pyrrolidinyl)-1H-imidazol-5-yl)-4-biphenylyl)-1H-imidazol-2-yl)-1-pyrrolidinyl)-2-oxo-1-phenylethanamine]
- EC50: 0.001 to 0.999 nM

SMILES: CN[C@@H](C(=O)N1CCC[C@H]1c1nc(-c2ccc(-c3ccc(-c4cnc([C@@H]5CCCN5C(=O)[C@H](NC)c5ccccc5)[nH]4)cc3)cc2)c[nH]1)c1ccccc1 [Example F15, (1R)-N-methyl-2-((2S)-2-(4-(4′-(2-((2S)-1-((2R)-2-(methylamino)-2-phenylacetyl)-2-pyrrolidinyl)-1H-imidazol-5-yl)-4-biphenylyl)-1H-imidazol-2-yl)-1-pyrrolidinyl)-2-oxo-1-phenylethanamine]
- EC50: 0.001 to 0.999 nM

SMILES: CCCN[C@@H](C(=O)N1CCC[C@H]1c1nc(-c2ccc(-c3ccc(-c4cnc([C@@H]5CCCN5C(=O)[C@H](NCCC)c5ccccc5)[nH]4)cc3)cc2)c[nH]1)c1ccccc1 [Example F16, N-((1R)-2-oxo-1-phenyl-2-((2S)-2-(4-(4′-(2-((2S)-1-((2R)-2-phenyl-2-(propylamino)acetyl)-2-pyrrolidinyl)-1H-imidazol-5-yl)-4-biphenylyl)-1H-imidazol-2-yl)-1-pyrrolidinyl)ethyl)-1-propanamine]
- EC50: 0.001 to 0.999 nM

SMILES: CCCCN[C@@H](C(=O)N1CCC[C@H]1c1nc(-c2ccc(-c3ccc(-c4cnc([C@@H]5CCCN5C(=O)[C@H](NCCCC)c5ccccc5)[nH]4)cc3)cc2)c[nH]1)c1ccccc1 [Example F17, N-((1R)-2-((2S)-2-(4-(4′-(2-((2S)-1-((2R)-2-(butylamino)-2-phenylacetyl)-2-pyrrolidinyl)-1H-imidazol-5-yl)-4-biphenylyl)-1H-imidazol-2-yl)-1-pyrrolidinyl)-2-oxo-1-phenylethyl)-1-butanamine]
- EC50: 0.001 to 0.999 nM

SMILES: CCCOC(=O)N[C@@H](C)C(=O)N1CCC[C@H]1c1nc(-c2ccc(-c3ccc(-c4cnc([C@@H]5CCCN5C(=O)[C@H](C)NC(=O)OCCC)[nH]4)cc3)cc2)c[nH]1 [Example F20, propyl ((1S)-1-methyl-2-oxo-2-((2S)-2-(4-(4′-(2-((2S)-1-(N-(propoxycarbonyl)-L-alanyl)-2-pyrrolidinyl)-1H-imidazol-5-yl)-4-biphenylyl)-1H-imidazol-2-yl)-1-pyrrolidinyl)ethyl)carbamate]
- EC50: 100 to 999 nM

SMILES: CCCCOC(=O)N[C@@H](C)C(=O)N1CCC[C@H]1c1nc(-c2ccc(-c3ccc(-c4cnc([C@@H]5CCCN5C(=O)[C@H](C)NC(=O)OCCCC)[nH]4)cc3)cc2)c[nH]1 [Example F21, butyl ((1S)-2-((2S)-2-(4-(4′-(2-((2S)-1-(N-(butoxycarbonyl)-L-alanyl)-2-pyrrolidinyl)-1H-imidazol-5-yl)-4-biphenylyl)-1H-imidazol-2-yl)-1-pyrrolidinyl)-1-methyl-2-oxoethyl)carbamate]
- EC50: 100 to 999 nM

SMILES: CC(C)[C@H](O)C(=O)N[C@@H](C)C(=O)N1CCC[C@H]1c1nc(-c2ccc(-c3ccc(-c4cnc([C@@H]5CCCN5C(=O)[C@H](C)NC(=O)[C@@H](O)C(C)C)[nH]4)cc3)cc2)c[nH]1 [Example F22, (2S)-2-hydroxy-N-((1S)-2-((2S)-2-(5-(4′-(2-((2S)-1-(N-((2S)-2-hydroxy-3-methylbutanoyl)-L-alanyl)-2-pyrrolidinyl)-1H-imidazol-4-yl)-4-biphenylyl)-1H-imidazol-2-yl)-1-pyrrolidinyl)-1-methyl-2-oxoethyl)-3-methylbutanamide]
- EC50: 100 to 999 nM

SMILES: CCOC(=O)N[C@H](C(=O)N1CCC[C@H]1c1nc(-c2ccc(-c3ccc(-c4c[nH]c([C@@H]5CCCN5C(=O)[C@@H](NC(=O)OCC)C(C)C)n4)cc3)cc2)c[nH]1)C(C)C [Example F25, ethyl ((1S)-1-(((2S)-2-(4-(4′-(2-((2S)-1-((2S)-2-((ethoxycarbonyl)amino)-3-methylbutanoyl)-2-pyrrolidinyl)-1H-imidazol-4-yl)-4-biphenylyl)-1H-imidazol-2-yl)-1-pyrrolidinyl)carbonyl)-2-methylpropyl)carbamate]
- EC50: 0.001 to 0.999 nM

SMILES: CC(C)OC(=O)N[C@H](C(=O)N1CCC[C@H]1c1nc(-c2ccc(-c3ccc(-c4c[nH]c([C@@H]5CCCN5C(=O)[C@@H](NC(=O)OC(C)C)C(C)C)n4)cc3)cc2)c[nH]1)C(C)C [Example F26, isopropyl ((1S)-1-(((2S)-2-(4-(4′-(2-((2S)-1-((2S)-2-((isopropoxycarbonyl)amino)-3-methylbutanoyl)-2-pyrrolidinyl)-1H-imidazol-4-yl)-4-biphenylyl)-1H-imidazol-2-yl)-1-pyrrolidinyl)carbonyl)-2-methylpropyl)carbamate]
- EC50: 1 to 99 nM

SMILES: C[C@H](O)C(=O)N1CCC[C@H]1c1nc(-c2ccc(-c3ccc(-c4cnc([C@@H]5CCCN5C(=O)[C@H](C)O)[nH]4)cc3)cc2)c[nH]1 [Example F27, (2S)-1-((2S)-2-(4-(4′-(2-((2S)-1-((2S)-2-hydroxypropanoyl)-2-pyrrolidinyl)-1H-imidazol-5-yl)-4-biphenylyl)-1H-imidazol-2-yl)-1-pyrrolidinyl)-1-oxo-2-propanol]
- EC50: 1 to 99 nM

SMILES: CC(C)C[C@@H](C(=O)N1CCC[C@H]1c1nc(-c2ccc(-c3ccc(-c4cnc([C@@H]5CCCN5C(=O)[C@H](CC(C)C)N(C)C(=O)OC(C)(C)C)[nH]4)cc3)cc2)c[nH]1)N(C)C(=O)OC(C)(C)C [Example F28, tert-butyl ((1S)-1-(((2S)-2-(5-(4′-(2-((2S)-1-((2S)-2-((tert-butoxycarbonyl)(methyl)amino)-4-methylpentanoyl)-2-pyrrolidinyl)-1H-imidazol-4-yl)-4-biphenylyl)-1H-imidazol-2-yl)-1-pyrrolidinyl)carbonyl)-3-methylbutyl)methylcarbamate]
- EC50: 1 to 99 nM

SMILES: CCC(C)[C@@H](C(=O)N1CCC[C@H]1c1nc(-c2ccc(-c3ccc(-c4cnc([C@@H]5CCCN5C(=O)[C@H](C(C)CC)N(C)C(=O)OC(C)(C)C)[nH]4)cc3)cc2)c[nH]1)N(C)C(=O)OC(C)(C)C (stereo partly drawn) [Example F29, tert-butyl ((1S)-1-(((2S)-2-(5-(4′-(2-((2S)-1-((2S)-2-((tert-butoxycarbonyl)(methyl)amino)-3-methylpentanoyl)-2-pyrrolidinyl)-1H-imidazol-4-yl)-4-biphenylyl)-1H-imidazol-2-yl)-1-pyrrolidinyl)carbonyl)-2-methylbutyl)methylcarbamate]
- EC50: 1 to 99 nM

SMILES: CC(C)[C@@H](C(=O)N1CCC[C@H]1c1nc(-c2ccc(-c3ccc(-c4cnc([C@@H]5CCCN5C(=O)[C@H](C(C)C)N(C)C(=O)OC(C)(C)C)[nH]4)cc3)cc2)c[nH]1)N(C)C(=O)OC(C)(C)C [Example F30, tert-butyl ((1S)-1-(((2S)-2-(5-(4′-(2-((2S)-1-((2S)-2-((tert-butoxycarbonyl)(methyl)amino)-3-methylbutanoyl)-2-pyrrolidinyl)-1H-imidazol-4-yl)-4-biphenylyl)-1H-imidazol-2-yl)-1-pyrrolidinyl)carbonyl)-2-methylpropyl)methylcarbamate]
- EC50: 1 to 99 nM

SMILES: CN[C@@H](CC(C)C)C(=O)N1CCC[C@H]1c1nc(-c2ccc(-c3ccc(-c4cnc([C@@H]5CCCN5C(=O)[C@H](CC(C)C)NC)[nH]4)cc3)cc2)c[nH]1 [Example F32, (2S)-N,4-dimethyl-1-((2S)-2-(4-(4′-(2-((2S)-1-((2S)-4-methyl-2-(methylamino)pentanoyl)-2-pyrrolidinyl)-1H-imidazol-5-yl)-4-biphenylyl)-1H-imidazol-2-yl)-1-pyrrolidinyl)-1-oxo-2-pentanamine]
- EC50: 100 to 999 nM

SMILES: CCC(C)[C@H](NC)C(=O)N1CCC[C@H]1c1nc(-c2ccc(-c3ccc(-c4cnc([C@@H]5CCCN5C(=O)[C@@H](NC)C(C)CC)[nH]4)cc3)cc2)c[nH]1 (stereo partly drawn) [Example F33, (2S)-N,3-dimethyl-1-((2S)-2-(4-(4′-(2-((2S)-1-((2S)-3-methyl-2-(methylamino)pentanoyl)-2-pyrrolidinyl)-1H-imidazol-5-yl)-4-biphenylyl)-1H-imidazol-2-yl)-1-pyrrolidinyl)-1-oxo-2-pentanamine]
- EC50: 100 to 999 nM

SMILES: CN[C@H](C(=O)N1CCC[C@H]1c1nc(-c2ccc(-c3ccc(-c4cnc([C@@H]5CCCN5C(=O)[C@@H](NC)C(C)C)[nH]4)cc3)cc2)c[nH]1)C(C)C [Example F34, (2S)-N,3-dimethyl-1-((2S)-2-(4-(4′-(2-((2S)-1-((2S)-3-methyl-2-(methylamino)butanoyl)-2-pyrrolidinyl)-1H-imidazol-5-yl)-4-biphenylyl)-1H-imidazol-2-yl)-1-pyrrolidinyl)-1-oxo-2-butanamine]
- EC50: 1 to 99 nM

SMILES: CC[C@@H](C)[C@H](NC)C(=O)N1CCC[C@H]1c1nc(-c2ccc(-c3ccc(-c4cnc([C@@H]5CCCN5C(=O)[C@@H](NC)[C@H](C)CC)[nH]4)cc3)cc2)c[nH]1 [Example F35, (2S,3R)-N,3-dimethyl-1-((2S)-2-(4-(4′-(2-((2S)-1-((2S,3R)-3-methyl-2-(methylamino)pentanoyl)-2-pyrrolidinyl)-1H-imidazol-5-yl)-4-biphenylyl)-1H-imidazol-2-yl)-1-pyrrolidinyl)-1-oxo-2-pentanamine]
- EC50: 100 to 999 nM

SMILES: COC(=O)N[C@](C)(C(=O)N1CCC[C@H]1c1nc(-c2ccc(-c3ccc(-c4cnc([C@@H]5CCCN5C(=O)[C@@](C)(NC(=O)OC)C(C)C)[nH]4)cc3)cc2)c[nH]1)C(C)C [Example F37, methyl ((1S)-1-(((2S)-2-(4-(4′-(2-((2S)-1-((2S)-2-((methoxycarbonyl)amino)-2,3-dimethylbutanoyl)-2-pyrrolidinyl)-1H-imidazol-5-yl)-4-biphenylyl)-1H-imidazol-2-yl)-1-pyrrolidinyl)carbonyl)-1,2-dimethylpropyl)carbamate]
- EC50: 100 to 999 nM
